Source: patent US20230295137A1, “COVALENT EGFR INHIBITORS AND METHODS OF USE THEREOF” (DANA-FARBER CANCER INSTITUTE, INC., priority 2020, published 2023)

Assays:
[1] = system: EGFR L858R/C797S Ba/F3 cells; assay: Ba/F3 cell proliferation (Cell Titer Glo), EGFR L858R/C797S; format: cell-based, murine; conditions: Mus musculus, BaF3, Ba/F3 cells with EGFR L858R/C797S, 72 hours exposure, read-out: L/C797S
Excerpt: (§1) The selectivity between wild-type EGER and EGFR containing one or more mutations as described herein can also be measured using cellular proliferation assays where cell proliferation is dependent on kinase activity. For example, murine Ba/F3 cells transfected with a suitable version of wild-type EGFR (such as VIII; containing a WT EGFR kinase domain), or Ba/F3 cells transfected with L858R/T790M, Del/T790M/L718Q, L858R/T790M/L718Q, L858R/T790M/C797S, Del/T790M/C797S, L858R/T790M/I941R, or Exon 19 deletion/T790M can be used.
(§2) The EGFR mutant L858R Ba/F3 cells have been previously described (Zhou, W., et al. Nature 482, 2009, 1070-1074). […]
(§3) Growth and inhibition of growth was assessed by the Cell Titer Glo assay (Promega, Madison, WI) and was performed according to the manufacturer's instructions. The Cell Titer Glo assay is a luminescence-based method used to determine the number of viable cells based on quantitation of the ATP present, which is directly proportional to the amount of metabolically active cells present. Ba/F3 cells of different EGFR genotypes were exposed to compounds for 72 hours and the number of cells used per experiment was determined empirically as has been previously established (Zhou, et al., Nature 2009). […]

[2] = system: EGFR mutant L858R Ba/F3 cells; assay: Ba/F3 cell proliferation (Cell Titer Glo), EGFR L858R; format: cell-based, murine; conditions: Mus musculus, BaF3, Ba/F3 cells with EGFR L858R, 72 hours exposure, read-out: L BaF3
Excerpt: as §1, §2, §3

| EC50 [1] | EC50 [2] | Structure (SMILES) |
| --- | --- | --- |
| 430 nM | 110 nM | C=CC(=O)Nc1cc(C(=O)Nc2nc3cccc(C)c3n2[C@@H]2CCCCN(C(C)=O)C2)cs1 [Compound 002] |
| 173 nM | 62 nM | C=CC(=O)Nc1csc(C(=O)Nc2nc3cccc(C)c3n2[C@@H]2CCCCN(C(C)=O)C2)c1 [Compound 009] |
